Experimental data from patent US20100286280A1, “INHIBITORS OF EPPIN/SEMENOGELIN BINDING AS MALE CONTRACEPTIVES” (The University of North Carolina at Chapel Hill, priority 2007, published 2010).
“Also recorded” adds a separate entry of the source.

Tests used:
[1] = target: T1, recombinant Eppin binding to recombinant semenogelin (Homo sapiens, UniProt O95925); test: Eppin-semenogelin in vitro binding assay (96-well ELISA format, absorption at 450 nm); conditions: Eppin preincubated with compound dilutions starting at 40 μg/ml; OD 450 nm (FIG. 4)
T1 construct: made in house; host or cells: E. coli strain M15 [pREP-4]
T1 sequence (O95925 22-133): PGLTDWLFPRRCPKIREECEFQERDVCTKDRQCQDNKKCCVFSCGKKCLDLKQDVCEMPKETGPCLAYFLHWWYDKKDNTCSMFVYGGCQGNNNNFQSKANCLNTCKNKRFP
Procedure: In one embodiment, His-tagged recombinant semenogelin is bound to the individual wells of the plate, FLAG-tagged recombinant Eppin is bound to the semenogelin. The recombinant Eppin and recombinant semenogelin will form a complex. Compounds are then individually added to the wells of the plate and allowed to interfere with the Eppin-semenogelin complex formation. An anti-FLAG antibody (such as the M2 antibody sold by Sigma-Aldrich) is then added to the wells of the plate. The inhibition of the binding of Eppin to semenogelin is determined by looking for changes in Eppin-semenogelin binding when the anti-FLAG antibody (such as those used in commercially-available ELISA assays) is added. One can detect the binding of the anti-FLAG antibody to the FLAG tagged Eppin, for example, by looking at the absorption at 450 nm. In another embodiment, compounds are incubated with FLAG-tagged recombinant Eppin before being added to Sg. The anti-FLAG antibody is added after the Eppin-compound mixtures are added to the wells of the plate.
Recombinant Eppin and semenogelin are as described in Wang et al., Biology of Reproduction, 72:1064-1070 (2005). The recombinant Eppin used in the assays described herein has been tagged with a FLAG tag. The recombinant semenogelin is a His-tagged recombinant protein of the fragment of semenogelin starting with amino acid 164 and continuing to amino acid 283. […]

[2] = system: human spermatozoa; test: Human sperm motility assay with Compound A4; format: cell-based
Description: Human spermatozoa were obtained from the UNC-Hospital clinic, washed and used for testing in a motility assay. Compound A4 reduced the total number of motile sperm in an ejaculate to <10% within one hour. The data are shown below in FIGS. 5 and 6, and in Tables 2 and 3.

SMILES: Cl.NC(=O)CNCC(N)=O [Compound A4]
- inhibition of Eppin-semenogelin binding [1]: effective at inhibiting this binding in a dose dependent manner; also recorded: inhibited Eppin-semenogelin binding in a dose dependent manner
- Velocity ([2]; Table 2, swim up + A4 + 1 hr): 15 μm/sec
- total distance ([2]; Table 2, swim up + A4 + 1 hr): 222 μm
- % Motility ([2]; Table 3, swim up + 1 hour): 7%
- Average velocity ([2]; Table 3, swim up + 1 hour): 14.9 μm/sec
- Distance ([2]; Table 3, swim up + 1 hour): 222 μm
- Straight distance ([2]; Table 3, swim up + 1 hour): 48.7 μm
- inhibition of sperm motility (in words) ([2]; human spermatozoa): inhibits their motility, significantly reducing their forward velocity and distance traveled; also recorded: effective at inhibiting sperm motility
- total number of motile sperm in an ejaculate ([2]; within one hour): < 10%
